According to patent publication US20240016762A1, “DUAL ANALGESIC/ANTI-INFLAMMATORY COMPOSITIONS COMPRISING CB2 RECEPTOR AGONISTS, COMBINATIONS, AND METHODS OF USE THEREOF” (Altus Formulation lnc., priority 2020, published 2024):

How the values were obtained:
[1] = test system: plantar incision in the hind paw (post-operative incisional pain); experiment: Rat postoperative incisional (plantar incision) pain model, von Frey withdrawal threshold; settings: iv; for ED50: Rattus norvegicus, read-out: ED50 (median effective dose)
Procedure: The model developed was based on that described by Labuda et al. (supra). […] All test articles were administered intravenously via the tail vein as a single bolus.
Male Sprague Dawley rats (Charles River, St-Constant, Qc, Canada), were purchased and housed in auto-ventilated cages in a climate-controlled room on a 12-hour light/dark cycle. The animals were allowed free access to food pellets and water and weighed 200-225 g at the time of the testing.
Post-operative incisional pain was induced via a 1 cm plantar incision in the hind paw. Briefly, under deep anesthesia with isoflurane the plantar aspect of the hind paw was cleaned and sterilized using a 10% povidone-iodine solution after which a 1 cm longitudinal incision was made with a number 11 blade. The incision penetrated through the skin and fascia of the plantar aspect of the foot. The plantaris muscle was also elevated and incised longitudinally, the muscle origin remaining intact. After hemostatis with gentle pressure, the skin was closed with 2 mattress sutures of 5-0 nylon and the wound site covered with an antibacterial ointment. The rats were then placed in clear Plexiglas cages with plastic grid floors (8×8 mm) and allowed to acclimate.
The pain response was evaluated using the von Frey mechanical stimulation test employing von Frey filaments applied vertically to an area adjacent to the wound. […] The resistance to bending (reflective of the applied pressure) of the filament causing a withdrawal response was then recorded as the withdrawal threshold. […] After each filament application, animals were given a 5 minute test-free period after which the test was repeated the lowest force required for a withdrawal response from the 2 tests being recorded as the withdrawal threshold (WT). […]
The paw withdrawal threshold was again measured at 0.25, 1, 2, 3, 4, 5, 6, 7, 8 hours post treatment administration animal responses being plotted as withdrawal response/time curves for each dose given as before.

[2] = test system: corneal cauterization and capsaicin challenge (corneal pain); settings: cited from earlier work; for ED50: Thapa et al (2018)
[3] = molecular target: CB2 receptor (Homo sapiens, UniProt P34972); settings: Smoum et al. (2015); cited from earlier work
Sequence of CB2 receptor (P34972 whole entry): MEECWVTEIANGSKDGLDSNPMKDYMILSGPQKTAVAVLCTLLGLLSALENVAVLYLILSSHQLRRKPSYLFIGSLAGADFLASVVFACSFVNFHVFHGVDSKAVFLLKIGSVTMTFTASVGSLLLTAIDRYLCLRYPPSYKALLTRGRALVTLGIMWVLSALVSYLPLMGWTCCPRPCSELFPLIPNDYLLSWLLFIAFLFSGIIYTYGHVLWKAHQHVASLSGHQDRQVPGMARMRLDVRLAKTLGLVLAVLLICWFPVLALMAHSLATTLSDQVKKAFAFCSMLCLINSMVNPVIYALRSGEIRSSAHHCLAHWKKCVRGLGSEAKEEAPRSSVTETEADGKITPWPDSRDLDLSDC

| Compound | ED50 [1] | ED50 [2] | also measured |
| --- | --- | --- | --- |
| O=C(c1ccccc1)c1ccc2n1CCC2C(=O)O (centres unmarked) [Ketorolac, ketorolac] | 23.1 mg/kg | – | Dose/response relationship of AUC0.25-8 hr [1]: clear dose response effect |
| CCCCCc1cc(O)c2c(c1)OC(C)(C)[C@@H]1CC=C(C)C[C@@H]21 [A8 THC] | – | 1% | – |
| CCCCCCC(C)(C)c1cc(OC)c([C@@H]2C=C(CO)[C@@H]3C[C@H]2C3(C)C)c(OC)c1 (single isomer, unassigned) [Batch E2] | – | – | Affinity for CB2 receptor relative to E1 [3]: lower affinity for CB2 receptor than E1 |
| Cc1ccc(-c2cc(C(F)(F)F)nn2-c2ccc(S(N)(=O)=O)cc2)cc1 [celecoxib] | 22.3 mg/kg | – | – |
| C=C(C)[C@@H]1CCC(C)=C[C@H]1c1c(O)cc(CCCCC)cc1O [CBD] | – | 5% | – |
| CCCCCCC(C)(C)c1cc(OC)c([C@@H]2C=C(CO)[C@@H]3C[C@H]2C3(C)C)c(OC)c1 [HU-308] | – | – | Pain score ([2]; 1.5% solution in soybean oil, Thapa et al. (2018)): 17; Analgesic effect ([2]; doses lower than 1.5%, Thapa et al. (2018)): failed to generate an analgesic effect |
